Source: patent publication US9212182B2, “Bicyclic sulfonamide compounds as sodium channel inhibitors” (AMGEN INC., priority 2013, dated 2015)
pIC50: −log10 of the molar value. Where two headings read alike, the source gives them in different places.

Target: Nav 1.7 (Homo sapiens (Human), UniProt Q15858)
Assay: in-vitro Nav 1.7 PX (IC50)
Type: cell-based
[1] = in-vitro Nav 1.7 PX data (PatchXpress)

Chain of Nav 1.7 (Q15858 whole entry): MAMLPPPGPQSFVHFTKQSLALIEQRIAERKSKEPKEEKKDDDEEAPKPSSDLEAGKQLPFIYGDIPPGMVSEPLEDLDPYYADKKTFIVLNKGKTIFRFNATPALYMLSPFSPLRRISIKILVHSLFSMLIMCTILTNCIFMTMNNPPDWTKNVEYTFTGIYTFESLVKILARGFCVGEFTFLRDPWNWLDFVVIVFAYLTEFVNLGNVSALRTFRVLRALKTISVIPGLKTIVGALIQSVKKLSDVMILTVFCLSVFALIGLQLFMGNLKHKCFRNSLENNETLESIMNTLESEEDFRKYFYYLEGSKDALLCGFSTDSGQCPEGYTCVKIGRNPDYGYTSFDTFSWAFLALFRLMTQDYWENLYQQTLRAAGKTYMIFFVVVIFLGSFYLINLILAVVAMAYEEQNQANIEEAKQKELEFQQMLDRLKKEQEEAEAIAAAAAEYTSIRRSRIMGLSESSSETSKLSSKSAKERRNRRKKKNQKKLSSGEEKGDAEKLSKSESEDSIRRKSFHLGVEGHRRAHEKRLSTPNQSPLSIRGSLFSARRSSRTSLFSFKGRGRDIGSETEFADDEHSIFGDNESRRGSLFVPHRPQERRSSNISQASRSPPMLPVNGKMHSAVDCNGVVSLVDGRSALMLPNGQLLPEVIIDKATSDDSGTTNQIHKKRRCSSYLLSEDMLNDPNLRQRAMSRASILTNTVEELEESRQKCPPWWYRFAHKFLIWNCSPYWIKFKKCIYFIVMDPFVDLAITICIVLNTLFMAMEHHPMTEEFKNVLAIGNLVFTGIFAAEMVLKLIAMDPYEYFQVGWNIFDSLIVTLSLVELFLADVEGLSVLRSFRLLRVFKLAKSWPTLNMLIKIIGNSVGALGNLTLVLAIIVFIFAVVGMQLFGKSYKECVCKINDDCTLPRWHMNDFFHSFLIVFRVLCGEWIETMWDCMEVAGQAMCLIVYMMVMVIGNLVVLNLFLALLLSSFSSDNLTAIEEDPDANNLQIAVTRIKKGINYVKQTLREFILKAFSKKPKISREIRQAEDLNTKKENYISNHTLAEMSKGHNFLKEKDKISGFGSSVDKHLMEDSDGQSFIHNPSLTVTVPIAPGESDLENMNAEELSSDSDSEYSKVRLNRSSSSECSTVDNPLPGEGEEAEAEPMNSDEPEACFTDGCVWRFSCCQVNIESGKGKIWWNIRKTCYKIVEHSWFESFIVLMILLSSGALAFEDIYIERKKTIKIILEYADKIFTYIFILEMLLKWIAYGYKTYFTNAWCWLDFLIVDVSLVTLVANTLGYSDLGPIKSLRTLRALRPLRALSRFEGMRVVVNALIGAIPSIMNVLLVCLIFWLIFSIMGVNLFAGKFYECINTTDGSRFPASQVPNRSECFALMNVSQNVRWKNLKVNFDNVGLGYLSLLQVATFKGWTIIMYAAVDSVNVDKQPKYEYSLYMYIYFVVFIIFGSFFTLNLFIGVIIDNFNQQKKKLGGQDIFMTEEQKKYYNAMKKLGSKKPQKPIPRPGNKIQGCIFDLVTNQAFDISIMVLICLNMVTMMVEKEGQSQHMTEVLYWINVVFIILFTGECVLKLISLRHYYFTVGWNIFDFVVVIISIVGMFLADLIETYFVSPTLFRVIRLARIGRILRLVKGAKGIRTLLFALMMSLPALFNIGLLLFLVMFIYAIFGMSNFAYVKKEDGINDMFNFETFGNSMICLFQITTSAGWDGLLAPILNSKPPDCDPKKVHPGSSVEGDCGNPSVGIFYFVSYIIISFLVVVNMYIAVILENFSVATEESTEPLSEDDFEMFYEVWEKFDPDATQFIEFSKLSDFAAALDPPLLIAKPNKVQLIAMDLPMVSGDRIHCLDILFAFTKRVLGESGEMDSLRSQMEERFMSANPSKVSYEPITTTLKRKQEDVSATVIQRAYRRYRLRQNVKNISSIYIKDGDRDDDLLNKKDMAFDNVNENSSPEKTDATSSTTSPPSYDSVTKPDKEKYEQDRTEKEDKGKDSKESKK

Structure (SMILES)	pIC50 (in-vitro Nav 1.7 PX data)	other results
COc1cc(-c2cccc(C(F)(F)F)c2)ccc1-n1c(=O)ccc2cc(S(=O)(=O)Nc3ccc(C)nn3)ccc21 [Example 1138, 1-(3-methoxy-3′-(trifluoromethyl)-4-biphenylyl)-N-(6-methyl-3-pyridazinyl)-2-oxo-1,2-dihydro-6-quinolinesulfonamide]	6.84	–
COc1cc(-c2cccc(Cl)c2)cc(F)c1-n1c(=O)ccc2cc(S(=O)(=O)Nc3ccon3)ccc21 (atropisomer, axis not shown; (M)) [Example 319, (M)-1-(3′-chloro-3-fluoro-5-methoxy-4-biphenylyl)-N-3-isoxazolyl-2-oxo-1,2-dihydro-6-quinolinesulfonamide]	–	pIC50: 6.68
O=c1ccc2cc(S(=O)(=O)Nc3cccnn3)ccc2n1-c1ccc(-c2cc(F)cc(F)c2)cc1C1CC1 [Example 1042, 1-(3-cyclopropyl-3′,5′-difluoro-4-biphenylyl)-2-oxo-N-3-pyridazinyl-1,2-dihydro-6-quinolinesulfonamide]	–	pIC50 [1]: 6.71
COc1cc(C)ccc1-c1ccc(-n2c(=O)ccc3cc(S(=O)(=O)Nc4ccon4)ccc32)c(OC)c1 [Example 1063, 1-(2′,3-dimethoxy-4′-methyl-4-biphenylyl)-N-3-isoxazolyl-2-oxo-1,2-dihydro-6-quinolinesulfonamide]	–	pIC50 [1]: 7.01
COc1cc(-c2ccc(C)c(Cl)c2)c(F)cc1-n1c(=O)ccc2cc(S(=O)(=O)Nc3ccon3)ccc21 (atropisomer, axis not shown; (P)) [Example 528, (P)-1-(3′-chloro-2-fluoro-5-methoxy-4′-methyl-4-biphenylyl)-N-3-isoxazolyl-2-oxo-1,2-dihydro-6-quinolinesulfonamide]	–	pIC50 (in-vitro PatchXpress (PX)): 8.15
COc1cc([C@H]2CC[C@@H](OC)CC2)c(F)cc1-n1c(=O)ccc2cc(S(=O)(=O)Nc3ccon3)ccc21 [Example 1086, 1-(5-fluoro-2-methoxy-4-(cis-4-methoxycyclohexyl)phenyl)-N-3-isoxazolyl-2-oxo-1,2-dihydro-6-quinolinesulfonamide, 1-(5-fluoro-2-methoxy-4-(trans-4-methoxycyclohexyl)phenyl)-N-3-isoxazolyl-2-oxo-1,2-dihydro-6-quinolinesulfonamide]	5.41	–
COc1cc(-c2cccc(F)c2)c(Cl)cc1-n1c(=O)ccc2cc(S(=O)(=O)Nc3ccon3)c(F)cc21 (atropisomer, axis not shown; (P)) [Example 358, (P)-1-(2-chloro-3′-fluoro-5-methoxy-[1,1′-biphenyl]-4-yl)-7-fluoro-N-(isoxazol-3-yl)-2-oxo-1,2-dihydroquinoline-6-sulfonamide]	–	pIC50: 5.33
COc1cc(-c2cccc(C(F)(F)F)c2)ccc1-n1c(=O)ccc2cc(S(=O)(=O)Nc3cccnn3)ccc21 (atropisomer, axis not shown; (M)) [Example 370, (M)-1-(3-methoxy-3′-(trifluoromethyl)-4-biphenylyl)-2-oxo-N-3-pyridazinyl-1,2-dihydro-6-quinolinesulfonamide]	–	pIC50 (in-vitro PatchXpress (PX)): 5.61
COc1cc(-c2ccc(Cl)c(C#N)c2)c(F)cc1-n1c(=O)ccc2cc(S(=O)(=O)Nc3ccon3)ccc21 (atropisomer, axis not shown; (P)) [Example 508, (P)-1-(4′-chloro-3′-cyano-2-fluoro-5-methoxy-4-biphenylyl)-N-3-isoxazolyl-2-oxo-1,2-dihydro-6-quinolinesulfonamide]	–	pIC50 (in-vitro PatchXpress (PX)): 8.15
COc1cc(-c2ccc(Cl)c(C)c2)c(Cl)cc1-n1c(=O)ccc2cc(S(=O)(=O)Nc3ccon3)ccc21 (atropisomer, axis not shown; (P)) [Example 471, (P)-1-(2,4′-dichloro-5-methoxy-3′-methyl-[1,1′-biphenyl]-4-yl)-N-(isoxazol-3-yl)-2-oxo-1,2-dihydroquinoline-6-sulfonamide]	–	pIC50: 8.10
COc1cc(C#CC2CCCC2)c(F)cc1-n1c(=O)cnc2cc(S(=O)(=O)Nc3ccon3)ccc21 [Example 1142, 1-(4-(cyclopentylethynyl)-5-fluoro-2-methoxyphenyl)-N-3-isoxazolyl-2-oxo-1,2-dihydro-6-quinoxalinesulfonamide]	–	pIC50: 7.10
COc1cc(C#CC(C)(C)C)c(F)cc1-n1c(=O)ccc2cc(S(=O)(=O)Nc3ccon3)ccc21 [Example 1122, 1-(4-(3,3-dimethyl-1-butyn-1-yl)-5-fluoro-2-methoxyphenyl)-N-3-isoxazolyl-2-oxo-1,2-dihydro-6-quinolinesulfonamide]	7.10	–
COc1cc(-c2cc(F)cc(Cl)c2)c(F)cc1-n1c(=O)ccc2cc(S(=O)(=O)Nc3ncccn3)ccc21 (atropisomer, axis not shown; (P)) [Example 541, (P)-1-(3′-chloro-2,5′-difluoro-5-methoxy-4-biphenylyl)-2-oxo-N-2-pyrimidinyl-1,2-dihydro-6-quinolinesulfonamide]	–	pIC50: 7.74
COc1cc(-c2cccc(C(F)(F)F)c2)ccc1-n1c(=O)ccc2cc(S(=O)(=O)Nc3ccc(F)cn3)ccc21 [Example 918, N-(5-fluoro-2-pyridinyl)-1-(3-methoxy-3′-(trifluoromethyl)-4-biphenylyl)-2-oxo-1,2-dihydro-6-quinolinesulfonamide]	7.03	–
COc1cc(-c2ccc(Cl)cc2)ccc1-n1c(=O)ccc2cc(S(=O)(=O)Nc3cc(C)ncn3)ccc21 [Example 767, 1-(4′-chloro-3-methoxy-4-biphenylyl)-N-(6-methyl-4-pyrimidinyl)-2-oxo-1,2-dihydro-6-quinolinesulfonamide]	7.27	–
COc1cc(-c2cc(F)cc(Cl)c2)c(F)cc1-n1c(=O)ccc2cc(S(=O)(=O)Nc3ccsn3)ccc21 [Example 921, 1-(3′-chloro-2,5′-difluoro-5-methoxy-4-biphenylyl)-N-3-isothiazolyl-2-oxo-1,2-dihydro-6-quinolinesulfonamide]	7.43	–
COc1cc(Br)c(F)cc1-n1c(=O)ccc2cc(S(=O)(=O)Nc3cc(OCC4(C)CC4)ncn3)ccc21 (atropisomer, axis not shown; (P)) [Example 1189, (P)-1-(4-bromo-5-fluoro-2-methoxyphenyl)-N-(6-((1-methylcyclopropyl)methoxy)-4-pyrimidinyl)-2-oxo-1,2-dihydro-6-quinolinesulfonamide]	–	pIC50: 5.08
COc1nc(OCc2ccc(F)c(F)c2F)c(Cl)cc1-n1c(=O)ccc2cc(S(=O)(=O)Nc3ccon3)ccc21 [Example 1216, 1-(5-chloro-2-methxy-6-((2,3,4-trifluorobenzyl)oxy)-3-pyridinyl)-N-3-isoxazolyl-2-oxo-1,2-dihydro-6-quinolinesulfonamide]	–	pIC50: 6.92
COc1cc(-c2cccc(C)c2)ccc1-n1c(=O)ccc2cc(S(=O)(=O)Nc3ncc(F)cn3)ccc21 [Example 1119, N-(5-fluoro-2-pyrimidinyl)-1-(3-methoxy-3′-methyl-4-biphenylyl)-2-oxo-1,2-dihydro-6-quinolinesulfonamide]	7.40	–
COc1cc(-c2ccccc2Cl)c(F)cc1-n1c(=O)ccc2cc(S(=O)(=O)Nc3ccon3)ccc21 [Example 952, 1-(2′-chloro-2-fluoro-5-methoxy-4-biphenylyl)-N-3-isoxazolyl-2-oxo-1,2-dihydro-6-quinolinesulfonamide]	7.21	–
COc1cc(-c2ccc(F)c(C)c2)c(F)cc1-n1c(=O)ccc2cc(S(=O)(=O)Nc3nnc(C)s3)ccc21 [Example 948, 1-(2,4′-difluoro-5-methoxy-3′-methyl-4-biphenylyl)-N-(5-methyl-1,3,4-thiadiazol-2-yl)-2-oxo-1,2-dihydro-6-quinolinesulfonamide]	7.00	–
COc1nc(-c2cc(F)cc(F)c2)c(Cl)cc1-n1c(=O)ccc2cc(S(=O)(=O)Nc3ccon3)ccc21 (atropisomer, axis not shown; (M)) [Example 666, (M)-1-(5-chloro-6-(3,5-difluorophenyl)-2-methoxy-3-pyridinyl)-N-3-isoxazolyl-2-oxo-1,2-dihydro-6-quinolinesulfonamide]	5.98	–
CCc1cccc(-c2ccc(-n3c(=O)ccc4cc(S(=O)(=O)Nc5ccon5)ccc43)c(OC)c2)c1 [Example 810, 1-(3′-ethyl-3-methoxy-4-biphenylyl)-N-3-isoxazolyl-2-oxo-1,2-dihydro-6-quinolinesulfonamide]	7.82	–
COc1ccc(-c2cccc(Cl)c2)cc1-n1c(=O)ccc2cc(S(=O)(=O)Nc3ccon3)ccc21 [Example 852, 1-(3′-chloro-4-methoxy-3-biphenylyl)-N-3-isoxazolyl-2-oxo-1,2-dihydro-6-quinolinesulfonamide]	7.66	–
COc1cc(-c2ccc(Cl)c(C)c2)c(F)cc1-n1c(=O)ccc2cc(S(=O)(=O)Nc3nncs3)ccc21 [Example 1074, 1-(4′-chloro-2-fluoro-5-methoxy-3′-methyl-4-biphenylyl)-2-oxo-N-1,3,4-thiadiazol-2-yl-1,2-dihydro-6-quinolinesulfonamide]	8.52	–
COc1cc(CC2CCCCC2)c(F)cc1-n1c(=O)ccc2cc(S(=O)(=O)Nc3ccncn3)ccc21 [Example 1115, 1-(4-(cyclohexylmethyl)-5-fluoro-2-methoxyphenyl)-2-oxo-N-4-pyrimidinyl-1,2-dihydro-6-quinolinesulfonamide]	7.09	–
COc1ccc(-c2cc(F)cc(F)c2)cc1-n1c(=O)ccc2cc(S(=O)(=O)Nc3ccon3)ccc21 [Example 865, 1-(3′,5′-difluoro-4-methoxy-3-biphenylyl)-N-3-isoxazolyl-2-oxo-1,2-dihydro-6-quinolinesulfonamide]	7.28	–
COc1cc(Br)c(F)cc1-n1c(=O)ccc2cc(S(=O)(=O)Nc3ccon3)ccc21 [Example 1105, 1-(4-bromo-5-fluoro-2-methoxyphenyl)-N-3-isoxazolyl-2-oxo-1,2-dihydro-6-quinolinesulfonamide]	6.51	–
COc1cc(-c2ccc(Cl)c(C)c2)c(F)cc1-n1c(=O)ccc2cc(S(=O)(=O)Nc3ncon3)ccc21 (atropisomer, axis not shown; (P)) [Example 663, (P)-1-(4′-chloro-2-fluoro-5-methoxy-3′-methyl-4-biphenylyl)-N-1,2,4-oxadiazol-3-yl-2-oxo-1,2-dihydro-6-quinolinesulfonamide]	8.22	–
COc1ccc(-c2cccc(F)c2)cc1-n1c(=O)ccc2cc(S(=O)(=O)Nc3ccon3)ccc21 (atropisomer, axis not shown; (P)) [Example 483, (P)-1-(3′-fluoro-4-methoxy-3-biphenylyl)-N-3-isoxazolyl-2-oxo-1,2-dihydro-6-quinolinesulfonamide]	–	pIC50: 7.27
